Source: the supplement of paper PMC11451515

System: SEM cells
Assay: cell viability relative to DMSO control; higher = less cytotoxic
Conditions: 48 h
Procedure, shortened: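 Cells were incubated for 48 h at 37°C before CellTiter-Glo One luminescence was read. The cells were NOMO1 or SEM (500 cells/well) or P12-Ichikawa (1000 cells/well) leukemia cells, adapted for at least four passages in each medium and seeded in 1536-well plates (5 μl). Dosing used library compounds in DMSO applied by pin over 11 threefold points, 47 μM to 0.79 nM. Viability is the per-plate percentage of DMSO wells, with cell-free wells as background.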

[1] = HPLM + 10% dialyzed FBS, 0.000781 µM
[2] = HPLM + 10% dialyzed FBS, 0.00234 µM
[3] = HPLM + 10% dialyzed FBS, 0.00702 µM
[4] = HPLM + 10% dialyzed FBS, 0.0211 µM
[5] = HPLM + 10% dialyzed FBS, 0.0632 µM
[6] = HPLM + 10% dialyzed FBS, 0.19 µM
[7] = HPLM + 10% dialyzed FBS, 0.569 µM
[8] = HPLM + 10% dialyzed FBS, 1.71 µM
[9] = HPLM + 10% dialyzed FBS, 5.12 µM
[10] = HPLM + 10% dialyzed FBS, 15.4 µM
[11] = HPLM + 10% dialyzed FBS, 46.1 µM
[12] = RPMI 5 mM glucose + 10% FBS, 0.000781 µM
[13] = RPMI 5 mM glucose + 10% FBS, 0.00234 µM
[14] = RPMI 5 mM glucose + 10% FBS, 0.00702 µM
[15] = RPMI 5 mM glucose + 10% FBS, 0.0211 µM
[16] = RPMI 5 mM glucose + 10% FBS, 0.0632 µM
[17] = RPMI 5 mM glucose + 10% FBS, 0.19 µM
[18] = RPMI 5 mM glucose + 10% FBS, 0.569 µM
[19] = RPMI 5 mM glucose + 10% FBS, 1.71 µM
[20] = RPMI 5 mM glucose + 10% FBS, 5.12 µM
[21] = RPMI 5 mM glucose + 10% FBS, 15.4 µM
[22] = RPMI 5 mM glucose + 10% FBS, 46.1 µM
[23] = RPMI 5 mM glucose + 10% dialyzed FBS, 0.000781 µM
[24] = RPMI 5 mM glucose + 10% dialyzed FBS, 0.00234 µM
[25] = RPMI 5 mM glucose + 10% dialyzed FBS, 0.00702 µM
[26] = RPMI 5 mM glucose + 10% dialyzed FBS, 0.0211 µM
[27] = RPMI 5 mM glucose + 10% dialyzed FBS, 0.0632 µM
[28] = RPMI 5 mM glucose + 10% dialyzed FBS, 0.19 µM
[29] = RPMI 5 mM glucose + 10% dialyzed FBS, 0.569 µM
[30] = RPMI 5 mM glucose + 10% dialyzed FBS, 1.71 µM
[31] = RPMI 5 mM glucose + 10% dialyzed FBS, 5.12 µM
[32] = RPMI 5 mM glucose + 10% dialyzed FBS, 15.4 µM
[33] = RPMI 5 mM glucose + 10% dialyzed FBS, 46.1 µM

| SMILES | cell viability [1] | cell viability [2] | cell viability [3] | cell viability [4] | cell viability [5] | cell viability [6] | cell viability [7] | cell viability [8] | cell viability [9] | cell viability [10] | cell viability [11] | cell viability [12] | cell viability [13] | cell viability [14] | cell viability [15] | cell viability [16] | cell viability [17] | cell viability [18] | cell viability [19] | cell viability [20] | cell viability [21] | cell viability [22] | cell viability [23] | cell viability [24] | cell viability [25] | cell viability [26] | cell viability [27] | cell viability [28] | cell viability [29] | cell viability [30] | cell viability [31] | cell viability [32] | cell viability [33] |
| --- | --- | --- | --- | --- | --- | --- | --- | --- | --- | --- | --- | --- | --- | --- | --- | --- | --- | --- | --- | --- | --- | --- | --- | --- | --- | --- | --- | --- | --- | --- | --- | --- | --- |
| NC\1=N\C(=O)N(\C=C1)[C@@H]2O[C@H](CO)[C@@H](O)[C@H]2O | 78.4% | 93.7% | 119% | 98.3% | 117% | 131% | 132% | 115% | 111% | 125% | 75.3% | 86.3% | 102% | 123% | 90.4% | 135% | 143% | 143% | 144% | 127% | 147% | 64.7% | 83.6% | 101% | 125% | 94.5% | 140% | 138% | 154% | 152% | 154% | 153% | 46.8% |
| Cc1c(C(=O)NN2CCCCC2)nn(-c2ccc(Cl)cc2Cl)c1-c1ccc(Cl)cc1 | 103% | 125% | 113% | 114% | 128% | 129% | 122% | 124% | 131% | 127% | 93% | 103% | 112% | 118% | 118% | 118% | 127% | 127% | 135% | 130% | 129% | 99.5% | 107% | 120% | 137% | 116% | 128% | 149% | 139% | 144% | 119% | 133% | 104% |
| S=C1N\C=N/C2=C1[NH]C=N2 | 91.2% | 116% | 136% | 121% | 131% | 126% | 124% | 105% | 106% | 90.6% | 81.7% | 104% | 119% | 144% | 119% | 132% | 139% | 108% | 93.3% | 79.5% | 73.2% | 66.4% | 105% | 119% | 138% | 106% | 134% | 119% | 91.3% | 56.7% | 48.5% | 42.4% | 33.7% |
| COc1ccc(-n2nc(C(N)=O)c3c2C(=O)N(c2ccc(N4CCCCC4=O)cc2)CC3)cc1 | 99.5% | 116% | 132% | 142% | 120% | 137% | 134% | 130% | 133% | 145% | 128% | 120% | 136% | 117% | 124% | 101% | 120% | 136% | 145% | 136% | 154% | 136% |  |  |  |  |  |  |  |  |  |  |  |
| N#Cc1c(NC(=O)c2cccc3ccccc23)sc2c1CCCC2 | 108% | 115% | 116% | 125% | 125% | 105% | 66% | 23.2% | 24.1% | 19.7% | 23% | 119% | 119% | 130% | 125% | 119% | 119% | 48.4% | 20.3% | 16.9% | 15.6% | 17.9% | 122% | 125% | 126% | 137% | 124% | 118% | 53.7% | 25.5% | 26.2% | 18% | 26.1% |
